# Where “and” joins values, the source holds several entries; their conditions need not be identical. Equal entries are not always repeated. Toxic doses and inconclusive results are not listed.
# System: L1210 leukemia ip in BDF1 mice, survival T/C
# Experiment: NCI In Vivo Anticancer Drug Screen. Data for tumor model L1210 Leukemia (intraperitoneal) in B6D2F1 (BDF1) mice
# Details: endpoint: mean survival time, higher = longer survival
# Outline: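 Antitumor effect is assessed in tumor-bearing animals. Survival in the compound arm is compared with a vehicle-dosed control arm and expressed as their quotient.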
# [1] = dose: 100.0 mg/kg/injection, schedule: Q04DX002 (ip), vehicle: saline
# [2] = dose: 100.0 mg/kg/injection, schedule: Q04DX003 (ip), vehicle: Klucel (hydroxypropylcellulose) (HPC)
# [3] = dose: 200.0 mg/kg/injection, schedule: Q04DX003 (ip), vehicle: Klucel (hydroxypropylcellulose) (HPC)
# [4] = dose: 400.0 mg/kg/injection, schedule: Q04DX003 (ip), vehicle: Klucel (hydroxypropylcellulose) (HPC)
# [5] = dose: 100.0 mg/kg/injection, schedule: Q01DX009 (ip), vehicle: saline with Tween-80
# [6] = dose: 100.0 mg/kg/injection, schedule: Q01DX009 (ip), vehicle: saline
# [7] = dose: 200.0 mg/kg/injection, schedule: Q01DX009 (ip), vehicle: saline
# [8] = dose: 100.0 mg/kg/injection, schedule: Q04DX003 (ip), vehicle: saline with Tween-80
# [9] = dose: 200.0 mg/kg/injection, schedule: Q04DX003 (ip), vehicle: saline with Tween-80
# [10] = dose: 400.0 mg/kg/injection, schedule: Q04DX003 (ip), vehicle: saline with Tween-80
# [11] = dose: 100.0 mg/kg/injection, schedule: Q04DX003 (ip), vehicle: saline
# [12] = dose: 200.0 mg/kg/injection, schedule: Q04DX003 (ip), vehicle: saline
compound,measurement,setting,value
Cc1c(C(=O)N(C)C)no[n+]1[O-],T/C,"dose: 25.0 mg/kg/injection, schedule: Q04DX002 (ip), vehicle: saline",102 % of control
same,T/C,"dose: 50.0 mg/kg/injection, schedule: Q04DX002 (ip), vehicle: saline",106 % of control
same,T/C,[1],98 % of control
Cc1ccc2[nH]c(=S)n(-c3ccc(C)c(Cl)c3)c(=O)c2c1,T/C,"dose: 100.0 mg/kg/injection, schedule: Q01DX009 (ip), vehicle: carboxymethylcellulose (CMC)",95 % of control
same,T/C,"dose: 100.0 mg/kg/injection, schedule: Q04DX002 (ip), vehicle: carboxymethylcellulose (CMC)",99 % of control and 89 % of control
same,T/C,"dose: 200.0 mg/kg/injection, schedule: Q01DX009 (ip), vehicle: carboxymethylcellulose (CMC)",93 % of control and 89 % of control
same,T/C,"dose: 200.0 mg/kg/injection, schedule: Q04DX002 (ip), vehicle: carboxymethylcellulose (CMC)",96 % of control and 99 % of control
same,T/C,"dose: 400.0 mg/kg/injection, schedule: Q01DX009 (ip), vehicle: carboxymethylcellulose (CMC)",92 % of control and 89 % of control
same,T/C,"dose: 400.0 mg/kg/injection, schedule: Q04DX002 (ip), vehicle: carboxymethylcellulose (CMC)",92 % of control
COc1cc(C)ccc1-c1c(C(=O)O)cccc1[N+](=O)[O-],T/C,[2],93 % of control
same,T/C,[3],95 % of control
same,T/C,[4],90 % of control
O=C(Nc1ccc(C(=O)c2ccccc2)cc1)c1ccccc1,T/C,[2],104 % of control
same,T/C,[3],108 % of control
same,T/C,[4],98 % of control
CCOc1ccc(NC(N)=O)cc1,T/C,"dose: 100.0 mg/kg/injection, schedule: Q04DX002 (ip), vehicle: gum acacia",107 % of control
same,T/C,"dose: 200.0 mg/kg/injection, schedule: Q04DX002 (ip), vehicle: gum acacia",95 % of control
same,T/C,"dose: 400.0 mg/kg/injection, schedule: Q04DX002 (ip), vehicle: gum acacia",100 % of control
O=C1NC(C2CCC3CN32)C(=O)NC1C1CCC2CN21 (stereo unspecified),T/C,"dose: 0.2 mg/kg/injection, schedule: Q01DX009 (ip), vehicle: saline",102 % of control and 105 % of control
same,T/C,"dose: 0.4 mg/kg/injection, schedule: Q01DX009 (ip), vehicle: saline",110 % of control and 113 % of control
same,T/C,"dose: 0.5 mg/kg/injection, schedule: Q01DX001 (ip), vehicle: Klucel (hydroxypropylcellulose) (HPC)",101 % of control
same,T/C,"dose: 0.8 mg/kg/injection, schedule: Q01DX009 (ip), vehicle: saline",110 % of control
same,T/C,"dose: 1.0 mg/kg/injection, schedule: Q01DX001 (ip), vehicle: Klucel (hydroxypropylcellulose) (HPC)",101 % of control
same,T/C,"dose: 1.1 mg/kg/injection, schedule: Q01DX009 (ip), vehicle: saline",112 % of control
same,T/C,"dose: 2.0 mg/kg/injection, schedule: Q01DX001 (ip), vehicle: Klucel (hydroxypropylcellulose) (HPC)",151 % of control
same,T/C,"dose: 2.7 mg/kg/injection, schedule: Q01DX009 (ip), vehicle: saline",163 % of control
same,T/C,"dose: 5.0 mg/kg/injection, schedule: Q01DX009 (ip), vehicle: saline",182 % of control
same,T/C,"dose: 10.0 mg/kg/injection, schedule: Q01DX009 (ip), vehicle: saline",103 % of control
same,T/C,"dose: 16.0 mg/kg/injection, schedule: Q01DX001 (ip), vehicle: Klucel (hydroxypropylcellulose) (HPC)",164 % of control and 271 % of control
same,T/C,"dose: 24.0 mg/kg/injection, schedule: Q01DX001 (ip), vehicle: Klucel (hydroxypropylcellulose) (HPC)",169 % of control
same,T/C,"dose: 36.0 mg/kg/injection, schedule: Q01DX001 (ip), vehicle: Klucel (hydroxypropylcellulose) (HPC)",101 % of control
Cc1cc(Cl)c(OC(=O)Nc2ccccc2F)cc1C,T/C,"dose: 25.0 mg/kg/injection, schedule: Q01DX009 (ip), vehicle: saline with Tween-80",106 % of control
same,T/C,"dose: 50.0 mg/kg/injection, schedule: Q01DX009 (ip), vehicle: saline with Tween-80",114 % of control
same,T/C,[5],103 % of control and 105 % of control
COC(=O)C([CH2][Sn]([c]1ccccc1)([c]1ccccc1)[c]1ccccc1)NC(=O)Cc1ccccc1 (stereo unspecified),T/C,"dose: 50.0 mg/kg/injection, schedule: Q01DX009 (ip), vehicle: saline",96 % of control
same,T/C,[6],100 % of control
same,T/C,[7],100 % of control
CN=C(N)c1ccc(NC(=O)/C=C\c2ccc(/C=C/C(=O)Nc3ccc(C(N)=NC)cc3)cc2)cc1,T/C,"dose: 15.0 mg/kg/injection, schedule: Q01DX Z (ip), vehicle: saline",121 % of control
same,T/C,"dose: 60.0 mg/kg/injection, schedule: Q01DX Z (oral), vehicle: saline",100 % of control
same,T/C,"dose: 120.0 mg/kg/injection, schedule: Q01DX Z (ip), vehicle: saline",179 % of control
same,T/C,"dose: 120.0 mg/kg/injection, schedule: Q01DX Z (oral), vehicle: saline",100 % of control
same,T/C,"dose: 240.0 mg/kg/injection, schedule: Q01DX Z (oral), vehicle: saline",101 % of control
same,T/C,"dose: 480.0 mg/kg/injection, schedule: Q01DX Z (oral), vehicle: saline",95 % of control
Cc1ccc(OC/C=C/CSc2ccc(C)cc2)cc1,T/C,"dose: 100.0 mg/kg/injection, schedule: Q01DX001 (ip), vehicle: Klucel (hydroxypropylcellulose) (HPC)",98 % of control
same,T/C,[2],101 % of control
same,T/C,"dose: 200.0 mg/kg/injection, schedule: Q01DX001 (ip), vehicle: Klucel (hydroxypropylcellulose) (HPC)",94 % of control
same,T/C,[3],97 % of control
same,T/C,"dose: 400.0 mg/kg/injection, schedule: Q01DX001 (ip), vehicle: Klucel (hydroxypropylcellulose) (HPC)",94 % of control
same,T/C,[4],95 % of control
O=C(O)C1OC1c1ccccc1 (stereo unspecified),T/C,[6],107 % of control
same,T/C,[8],98 % of control
same,T/C,[7],109 % of control
same,T/C,[9],98 % of control
same,T/C,"dose: 400.0 mg/kg/injection, schedule: Q01DX009 (ip), vehicle: saline",104 % of control
same,T/C,[10],100 % of control
O=S(NOCc1ccccc1)c1ccccc1 (stereo unspecified),T/C,"dose: 100.0 mg/kg/injection, schedule: Q04DX002 (ip), vehicle: Klucel (hydroxypropylcellulose) (HPC)",107 % of control
same,T/C,"dose: 200.0 mg/kg/injection, schedule: Q04DX002 (ip), vehicle: Klucel (hydroxypropylcellulose) (HPC)",107 % of control
same,T/C,"dose: 400.0 mg/kg/injection, schedule: Q04DX002 (ip), vehicle: Klucel (hydroxypropylcellulose) (HPC)",111 % of control
CC(=O)N1CCC(CC(O)Cc2ccnc3ccccc23)CC1 (stereo unspecified),T/C,[11],97 % of control
same,T/C,[12],97 % of control
NC(=O)C1=C(N)CCC1,T/C,[8],100 % of control
same,T/C,[9],95 % of control
same,T/C,[10],97 % of control
CC1=NC(C)(C)CO1,T/C,"dose: 100.0 mg/kg/injection, schedule: Q01DX001 (ip), vehicle: saline",101 % of control
same,T/C,"dose: 200.0 mg/kg/injection, schedule: Q01DX001 (ip), vehicle: saline",97 % of control
same,T/C,"dose: 400.0 mg/kg/injection, schedule: Q01DX001 (ip), vehicle: saline",95 % of control
Cc1cc(C(=O)NN)c(C#N)c(=O)[nH]1,T/C,"dose: 100.0 mg/kg/injection, schedule: Q01DX001 (ip), vehicle: other",93 % of control
same,T/C,"dose: 200.0 mg/kg/injection, schedule: Q01DX001 (ip), vehicle: other",95 % of control
same,T/C,"dose: 400.0 mg/kg/injection, schedule: Q01DX001 (ip), vehicle: other",97 % of control
Cc1ccc(S(=O)(=O)N(CCCc2c(Cl)nc(N)nc2Cc2ccccc2)c2ccccc2)cc1,T/C,"dose: 100.0 mg/kg/injection, schedule: Q04DX003 (ip), vehicle: gum acacia",97 % of control
same,T/C,"dose: 200.0 mg/kg/injection, schedule: Q04DX003 (ip), vehicle: gum acacia",92 % of control
same,T/C,"dose: 400.0 mg/kg/injection, schedule: Q04DX003 (ip), vehicle: gum acacia",94 % of control
C#CCOC(=O)c1ccc(C(=O)OCC#C)cc1,T/C,"dose: 100.0 mg/kg/injection, schedule: Q01DX009 (ip), vehicle: saline sonified",106 % of control
same,T/C,[2],100 % of control
same,T/C,"dose: 200.0 mg/kg/injection, schedule: Q01DX009 (ip), vehicle: saline sonified",96 % of control
same,T/C,[3],106 % of control
same,T/C,[4],90 % of control
C/C(CC(C)C)=N\NC(=O)Nc1ccc(Cl)c(Cl)c1,T/C,[5],100 % of control and 112 % of control
same,T/C,[1],94 % of control and 106 % of control
same,T/C,[11],92 % of control
same,T/C,"dose: 200.0 mg/kg/injection, schedule: Q01DX009 (ip), vehicle: saline with Tween-80",101 % of control and 112 % of control
same,T/C,"dose: 200.0 mg/kg/injection, schedule: Q04DX002 (ip), vehicle: saline",93 % of control and 105 % of control
same,T/C,[12],95 % of control
same,T/C,"dose: 400.0 mg/kg/injection, schedule: Q01DX009 (ip), vehicle: saline with Tween-80",101 % of control and 106 % of control
same,T/C,"dose: 400.0 mg/kg/injection, schedule: Q04DX002 (ip), vehicle: saline",95 % of control and 105 % of control
same,T/C,"dose: 400.0 mg/kg/injection, schedule: Q04DX003 (ip), vehicle: saline",113 % of control

# From PubChem BioAssay AID248 (DTP/NCI, 2004)
